In experiment [1] the test system is SDMA signal (PRMT5 inhibition) in HCT116 MTAP-deleted cells. Put plainly: Symmetric di-methyl arginine image-based high content screen assay (SDMA assay), HCT116 MTAP-deleted. Particulars: for EC50: Homo sapiens, HCT-116, 72 h, read-out: EC50 (SDMA assay); for EC50 selectivity (SDMA assay): taken as HCT116 WT versus MTAP-deleted. The format is cell-based. How it is done:
Symmetric di-methyl arginine image-based high content screen assay (SDMA assay) was performed in HCT116 WT and HCT116 MTAP-deleted cell lines to measure Symmetric Di-methyl Arginine (SDMA) signal reduction after selective PRMT5 inhibition in the MTAP-deleted cells.
Briefly, the same compound plates were generated as mentioned in the previous section of Cell viability assay on Day −1.
On Day 3, the cells were fixed by adding 45 μl of 8% neutralized formalin solution to each well using EL460 liquid dispenser 5 μl cassette and the cells were incubated for 30 minutes at room temperature. The formalin solution was washed off with […] phosphate buffered saline (dPBS), the 0.1% Triton X-100 solution in dPBS was used to permeabilize the cells for 15 minutes at room temperature. The triton solution was aspirated, 50 μl of Odyssey Blocking buffer+0.05% Tween20 was added and the plate was incubated at room temperature for 30 minutes.
The blocking solution was removed, a 20 μl of SDMA antibody (Cell Signaling Technology, Cat no. 13222) diluted 1:500 in Odyssey Blocking buffer+0.05% Tween20 was added and the plate was incubated at 4° C. overnight. Next day, the primary SDME antibody solution was washed from each well three times with 0.05% Tween20 in dPBS (PBST).
A 30 μl of the secondary antibody, a Goat anti-Rabbit Alexa Fluor Plus 488 (Invitrogen, Cat no. PIA32731) was diluted 1:500 in Odyssey Blocking buffer+0.05% Tween20 and the plate was incubated for 1.5 hours in dark at room temperature. The secondary antibody solution was removed, 30 μl of 5 mg/ml DAPI solution diluted 1:2000 in dPBS was added and the plate was incubated for 30 minutes in dark at room temperature. The DAPI solution was aspirated and the wells were washed six times with dPBS.
The SDMA signal and DAPI signal per cell were counted using a Cellomics CX7 LZR instrument reading under 488 and 405 nm laser, respectively. The SDMA signal was quantified by mean average intensity per cell from Alexa Fluor Plus 488 after the cell was defined with DAPI.

Experiment [2] relates to HCT116 MTAP-deleted cells. Put plainly: Cell viability assay (CellTiter-Glo, 7 days), HCT116 MTAP-deleted. Particulars: Homo sapiens, HCT-116, 168 h.
Experimental: Control compounds were analyzed in parallel each time for quality control.
In Brief, on Day −1, a serial dilution of stock compounds in DMSO was performed using BioMek liquid handlers and dispensed using Echo acoustic dispenser into 384 well plates. Both tool compounds and sample compounds were spotted in the same plate for a dose response of PRMT5 inhibitors. Compound plates were stored as frozen until the cells were ready for seeding.
On Day 0, 100 HCT WT or HCT116 MTAP-deleted cells were seeded in compound-containing 384 well plates (50 μl per well) in RPMI 1640 media supplemented with 10% heat inactivated fetal bovine serum, Glutamax and penicillin streptomycin using EL460 liquid dispenser 5 μl cassette (BioTek, part no. 7170011). After equilibrating the plate in room temperature, the cells were incubated for 7 days inside the sealed incubator set at 37 °C with 90% humidity and 5% CO2.
On Day 7, the viability of cells was measured using a CTG assay kit (CellTitre-Glo; Promega cat no. G7573). Shortly, 40 μl per well of luminescent cell viability assay reagent were dispensed using EL460 liquid dispenser 5 μl cassette. CTG luminescence signal was measured using an EnVision plate reader (PerkinElmer) in accordance with manufacturer's instruction. The CC50 values for each compound after 7 days of treatment were calculated using 4 parameter non-linear logistical curve fit.
The mark [3] stands for this setting: SDMA assay, 3 days of treatment, cell line not given, taken as HCT116 MTAP-deleted.

Data on 20 compounds can be found in patent US20240254118A1, “PRMT5 INHIBITORS AND USES THEREOF” (Gilead Sciences, Inc., priority 2022, published 2024).

Structures are written as SMILES. Read-outs that look alike come from different tables or passages of the source.

`C[C@H]1CN(N(Cc2ccc(C(F)(F)F)cn2)C(=O)c2ccc3nc(N)c4cnn(C)c4c3c2)C(=O)O1` (single isomer, unassigned) [Example 8]: the EC50 in experiment [1] (setting [3]) is less than 1 nM. Also, in experiment [1] (SDMA assay), the “EC50 selectivity (SDMA assay)” value was found to be 137. The compound also gave a CC50 in experiment [2] of less than 100 nM.

For `C[C@@H]1CN(N(Cc2ccc(C(F)(F)F)cn2)C(=O)c2ccc3nc(N)c4cnn(C)c4c3c2)C(=O)O1` (single isomer, unassigned) [Example 9], in experiment [1] (setting [3]), the EC50 was less than 1 nM. The “EC50 selectivity (SDMA assay)” value in experiment [1] (SDMA assay) came out at 180. Further, in experiment [2], the CC50 was less than 100 nM.

As for `CC(=O)N(C)N(Cc1nc2cc(C(F)(F)F)ccc2s1)C(=O)c1ccc2nc(N)c3cnn(C)c3c2c1` [Example 1], the half-maximal effective concentration (EC50) in experiment [1] (setting [3]) is less than 1 nM. For the same compound, in experiment [1] (SDMA assay), the “EC50 selectivity (SDMA assay)” value was found to be 122. In experiment [2], this compound had a CC50 of less than 100 nM.

For `Cn1ncc2c(N)nc3ccc(C(=O)N(Cc4ccc(C(F)(F)F)cc4F)N4CCCCC4=O)cc3c21` [Example 2, 4-amino-N-(2-fluoro-4-(trifluoromethyl)benzyl)-1-methyl-N-(2-oxopiperidin-1-yl)-1H-pyrazolo[4,3-c]quinoline-8-carboxamide], the concentration giving a half-maximal response (EC50) in experiment [1] (setting [3]) is less than 1 nM. Also, the “EC50 selectivity (SDMA assay)” value in experiment [1] (SDMA assay) is 25. The CC50 in experiment [2] is less than 100 nM.

In the case of `Cn1ncc2c(N)nc3ccc(C(=O)N(Cc4ccc(C(F)(F)F)cc4)N4CCCOC4=O)cc3c21` [Example 3, 4-amino-1-methyl-N-(2-oxo-1,3-oxazinan-3-yl)-N-(4-(trifluoromethyl)benzyl)-1H-pyrazolo[4,3-c]quinoline-8-carboxamide], the concentration for a half-maximal effect (EC50) in experiment [1] (setting [3]) is less than 1 nM. The “EC50 selectivity (SDMA assay)” value in experiment [1] (SDMA assay) amounted to 123. For the same compound, the CC50 in experiment [2] was less than 100 nM.

As for `Cn1ncc2c(N)nc3ccc(C(=O)N(Cc4ccc(C(F)(F)F)cn4)N4CCN(CC(F)(F)F)C4=O)cc3c21` [Example 4, 4-amino-1-methyl-N-(2-oxo-3-(2,2,2-trifluoroethyl)imidazolidin-1-yl)-N-((5-(trifluoromethyl)pyridin-2-yl)methyl)-1H-pyrazolo [4,3-c]quinoline-8-carboxamide], in experiment [1] (setting [3]), the EC50 lay in the range of 1 to 5 nM. Moreover, the “EC50 selectivity (SDMA assay)” value in experiment [1] (SDMA assay) was 327. Besides, the CC50 in experiment [2] was less than 100 nM.

On to `Cn1ncc2c(N)nc3ccc(C(=O)N(Cc4ccc(OC(F)F)cc4)N4CCCOC4=O)cc3c21` [Example 5, 4-amino-N-(4-(difluoromethoxy)benzyl)-1-methyl-N-(2-oxo-1,3-oxazinan-3-yl)-1H-pyrazolo[4,3-c]quinoline-8-carboxamide], for which, in experiment [1] (setting [3]), the EC50 is less than 1 nM. Besides, the “EC50 selectivity (SDMA assay)” value in experiment [1] (SDMA assay) is 266. In addition, in experiment [2], the cytotoxic concentration (CC50) is less than 100 nM.

As to `CC(=O)N(c1ccccc1)N(Cc1ccc(C(F)(F)F)cn1)C(=O)c1ccc2nc(N)c3cnn(C)c3c2c1` [Example 6, N′-acetyl-4-amino-1-methyl-N′-phenyl-N-((5-(trifluoromethyl)pyridin-2-yl)methyl)-1H-pyrazolo[4,3-c]quinoline-8-carbohydrazide], in experiment [1] (setting [3]), the 50% effective concentration (EC50) was less than 1 nM. Further, in experiment [1] (SDMA assay), the “EC50 selectivity (SDMA assay)” value is listed as 286. Moreover, the CC50 in experiment [2] is less than 100 nM.

For `CN1CCN(N(Cc2ccc(C(F)(F)F)cc2F)C(=O)c2ccc3nc(N)c4cnn(C)c4c3c2)C1=O` [Example 7, 4-amino-N-(2-fluoro-4-(trifluoromethyl)benzyl)-1-methyl-N-(3-methyl-2-oxoimidazolidin-1-yl)-1H-pyrazolo[4,3-c]quinoline-8-carboxamide], the EC50 in experiment [1] (setting [3]) was less than 1 nM. Besides, the “EC50 selectivity (SDMA assay)” value in experiment [1] (SDMA assay) is 62. The 50% cytotoxic concentration (CC50) in experiment [2] is less than 100 nM.

Regarding `Cn1ncc2c(N)nc3ccc(C(=O)N(Cc4ccc(C(F)(F)F)cn4)N4CCCOC4=O)cc3c21` [Example 10, 4-amino-1-methyl-N-(2-oxo-1,3-oxazinan-3-yl)-N-((5-(trifluoromethyl)pyridin-2-yl)methyl)-1H-pyrazolo[4,3-c]quinoline-8-carboxamide], the EC50 in experiment [1] (setting [3]) is less than 1 nM. The “EC50 selectivity (SDMA assay)” value in experiment [1] (SDMA assay) was 180. In experiment [2], the 50% cytotoxic concentration (CC50) was less than 100 nM.

Take `Cn1ncc2c(N)nc3ccc(C(=O)N(Cc4ccc(C(F)(F)F)cn4)N4C(=O)[C@H]5CC[C@@H]4C5)cc3c21` [Example 11, 4-amino-1-methyl-N-[(1R,4S)-3-oxo-2-azabicyclo[2.2.1]heptan-2-yl]-N-[[5-(trifluoromethyl)-2-pyridyl]methyl]pyrazolo[4,3-c]quinoline-8-carboxamide]: the EC50 in experiment [1] (setting [3]) was less than 1 nM. In addition, the “EC50 selectivity (SDMA assay)” value in experiment [1] (SDMA assay) is listed as 245. The CC50 in experiment [2] was less than 100 nM.

Consider `Cn1ncc2c(N)nc3ccc(C(=O)N(Cc4ccc(C(F)(F)F)cn4)N4CC(F)(F)CCC4=O)cc3c21` [Example 13, 4-amino-N-(5,5-difluoro-2-oxo-1-piperidyl)-1-methyl-N-[[5-(trifluoromethyl)-2-pyridyl]methyl]pyrazolo[4,3-c]quinoline-8-carboxamide], for which the EC50 in experiment [1] (setting [3]) is less than 1 nM. Also, the “EC50 selectivity (SDMA assay)” value in experiment [1] (SDMA assay) stood at 128. In addition, in experiment [2], the CC50 is less than 100 nM.

With `CN(C(=O)Oc1ccccc1)N(Cc1ccc(C(F)(F)F)cn1)C(=O)c1ccc2nc(N)c3cnn(C)c3c2c1` [Example 14, Phenyl 2-(4-amino-1-methyl-1H-pyrazolo[4,3-c]quinoline-8-carbonyl)-1-methyl-2-((5-(trifluoromethyl)pyridin-2-yl)methyl)hydrazine-1-carboxylate], the EC50 in experiment [1] was 1 to 5 nM. Further, in experiment [1] (SDMA assay), the “EC50 selectivity (SDMA assay)” value came to 148. In addition, in experiment [2], the cytotoxic concentration (CC50) was less than 100 nM.

As for `Cn1ncc2c(N)nc3ccc(C(=O)N(Cc4ccc(C(F)(F)F)c(F)c4)N4CCCC4=O)cc3c21` [Example 15, 4-amino-N-(3-fluoro-4-(trifluoromethyl)benzyl)-1-methyl-N-(2-oxopyrrolidin-1-yl)-1H-pyrazolo[4,3-c]quinoline-8-carboxamide], the EC50 in experiment [1] (setting [3]) is 1 to 5 nM. For the same compound, the “EC50 selectivity (SDMA assay)” value in experiment [1] (SDMA assay) came to 23. Also, in experiment [2], the CC50 is less than 100 nM.

`COc1ccc(CN(C(=O)c2ccc3nc(N)c4cnn(C)c4c3c2)N(C)C(C)=O)c(F)c1` [Example 16, N′-acetyl-4-amino-N-(2-fluoro-4-methoxybenzyl)-N′,1-dimethyl-1H-pyrazolo[4,3-c]quinoline-8-carbohydrazide]: in experiment [1] (setting [3]), the EC50 is less than 1 nM. Besides, the “EC50 selectivity (SDMA assay)” value in experiment [1] (SDMA assay) came to 306. In experiment [2], the CC50 was less than 100 nM.

As for `Cn1ncc2c(N)nc3ccc(C(=O)N(Cc4ccc(C(F)(F)F)cn4)N4CC5(CCC5)OC4=O)cc3c21` [Example 17, 4-amino-1-methyl-N-(6-oxo-5-oxa-7-azaspiro[3.4]octan-7-yl)-N-[[5-(trifluoromethyl)-2-pyridyl]methyl]pyrazolo[4,3-c]quinoline-8-carboxamide], the EC50 in experiment [1] (setting [3]) is less than 1 nM. Besides, the “EC50 selectivity (SDMA assay)” value in experiment [1] (SDMA assay) amounted to 502. Further, the CC50 in experiment [2] was less than 100 nM.

In the case of `COc1nc(C(F)(F)F)ccc1CN(C(=O)c1ccc2nc(N)c3cnn(C)c3c2c1)N(C)C(C)=O` [Example 18, N′-acetyl-4-amino-N-[[2-methoxy-6-(trifluoromethyl)-3-pyridyl]methyl]-N′, 1-dimethyl-pyrazolo[4,3-c]quinoline-8-carbohydrazide], the EC50 in experiment [1] (setting [3]) was less than 1 nM. The “EC50 selectivity (SDMA assay)” value in experiment [1] (SDMA assay) was 61. This compound showed a CC50 in experiment [2] of less than 100 nM.

On to `COc1cc(C(F)(F)F)ccc1CN(C(=O)c1ccc2nc(N)c3cnn(C)c3c2c1)N(C)C(C)=O` [Example 19, N′-acetyl-4-amino-N-[[2-methoxy-4-(trifluoromethyl)phenyl]methyl]-N′,1-dimethyl-pyrazolo[4,3-c]quinoline-8-carbohydrazide], for which, in experiment [1] (setting [3]), the EC50 is less than 1 nM. In experiment [1] (SDMA assay), the “EC50 selectivity (SDMA assay)” value is on record as 93. For the same compound, in experiment [2], the CC50 was less than 100 nM.

As to `Cn1ncc2c(N)nc3ccc(C(=O)N(Cc4ccc(C(F)(F)F)cn4)N4CCOCC4)cc3c21` [Example 20, 4-amino-1-methyl-N-morpholino-N-((5-(trifluoromethyl)pyridin-2-yl)methyl)-1H-pyrazolo[4,3-c]quinoline-8-carboxamide], in experiment [1] (setting [3]), the EC50 is less than 1 nM. The “EC50 selectivity (SDMA assay)” value in experiment [1] (SDMA assay) amounted to 143. For the same compound, in experiment [2], the CC50 is less than 100 nM.

On to `Cn1ncc2c(N)nc3ccc(C(=O)N(Cc4ccc(C(F)(F)F)cn4)N4CCCC(F)(F)C4)cc3c21` [Example 21, 4-amino-N-(3,3-difluoro-1-piperidyl)-1-methyl-N-[[5-(trifluoromethyl)-2-pyridyl]methyl]pyrazolo[4,3-c]quinoline-8-carboxamide], for which the EC50 in experiment [1] (setting [3]) is less than 1 nM. Moreover, the “EC50 selectivity (SDMA assay)” value in experiment [1] (SDMA assay) was 90. Besides, the CC50 in experiment [2] was less than 100 nM.
